The results in this text go back to BindingDB's records for doi:10.1021/jm00035a014 (University of Paris, 1994).

A value given as a limit tells only on which side of the number the result lay.

The first assay has as its target Glutamyl aminopeptidase (Oryctolagus cuniculus). Briefly: Inhibition of aminopeptidase A (APA).
For orientation: Ki means the dissociation constant of the complex between target and ligand, obtained from inhibition or displacement. A low value points to higher affinity. Compound `N[C@H](CCS)CCC(=O)O` [(S)-4-Amino-6-mercapto-hexanoic acid] gave a Ki of 2000 nM. That is a single-digit micromolar value.
Still for that read-out and setting: next, `NC(CS)CC1CCC(C(=O)O)CC1` (configuration not stated) [4-(2-Amino-3-mercapto-propyl)-cyclohexanecarboxylic acid]: 1900 nM; `NC(CS)c1ccc(C(=O)O)cc1` (configuration not stated) [4-(1-Amino-2-mercapto-ethyl)-benzoic acid]: over 3000 nM.
On the same count and under the same terms, next, `NC(CS)Cc1cccc(C(=O)O)c1` (configuration not stated) [3-(2-Amino-3-mercapto-propyl)-benzoic acid]: 840 nM.
The compound `NC(CS)c1cccc(C(=O)O)c1` (configuration not stated) [1-(3-Carboxy-phenyl)-2-mercapto-ethyl-ammonium] showed a Ki of 2400 nM.
On the same count and under the same terms, the result for `NC(CS)Cc1ccc(CC(=O)O)cc1` (configuration not stated) [[4-(2-Amino-3-mercapto-propyl)-phenyl]-acetic acid] reads 2200 nM.
Compound `N[C@@H](CS)CCC(=O)O` [(R)-4-Amino-5-mercapto-pentanoic acid] returned a Ki of 2300 nM.
Same read-out and setting: next, `NC(CS)Cc1ccc(C(=O)O)cc1` (configuration not stated) [2-(4-Carboxy-phenyl)-1-mercaptomethyl-ethyl-ammonium]: 2700 nM; `NC(CS)CC1CCCC(C(=O)O)C1` (configuration not stated) [2-(3-Carboxy-cyclohexyl)-1-mercaptomethyl-ethyl-ammonium]: over 3000 nM.
With `NC(CS)CC1CCC(CC(=O)O)CC1` (configuration not stated) [[4-(2-Amino-3-mercapto-propyl)-cyclohexyl]-acetic acid], affinity was put at a Ki of 2800 nM.

The next assay deals with Aminopeptidase N (Sus scrofa) (UniProt P15145). Briefly: Inhibitory potency against aminopeptidase N (APN).
Chain of Aminopeptidase N (Sus scrofa) (P15145 whole entry, looked up): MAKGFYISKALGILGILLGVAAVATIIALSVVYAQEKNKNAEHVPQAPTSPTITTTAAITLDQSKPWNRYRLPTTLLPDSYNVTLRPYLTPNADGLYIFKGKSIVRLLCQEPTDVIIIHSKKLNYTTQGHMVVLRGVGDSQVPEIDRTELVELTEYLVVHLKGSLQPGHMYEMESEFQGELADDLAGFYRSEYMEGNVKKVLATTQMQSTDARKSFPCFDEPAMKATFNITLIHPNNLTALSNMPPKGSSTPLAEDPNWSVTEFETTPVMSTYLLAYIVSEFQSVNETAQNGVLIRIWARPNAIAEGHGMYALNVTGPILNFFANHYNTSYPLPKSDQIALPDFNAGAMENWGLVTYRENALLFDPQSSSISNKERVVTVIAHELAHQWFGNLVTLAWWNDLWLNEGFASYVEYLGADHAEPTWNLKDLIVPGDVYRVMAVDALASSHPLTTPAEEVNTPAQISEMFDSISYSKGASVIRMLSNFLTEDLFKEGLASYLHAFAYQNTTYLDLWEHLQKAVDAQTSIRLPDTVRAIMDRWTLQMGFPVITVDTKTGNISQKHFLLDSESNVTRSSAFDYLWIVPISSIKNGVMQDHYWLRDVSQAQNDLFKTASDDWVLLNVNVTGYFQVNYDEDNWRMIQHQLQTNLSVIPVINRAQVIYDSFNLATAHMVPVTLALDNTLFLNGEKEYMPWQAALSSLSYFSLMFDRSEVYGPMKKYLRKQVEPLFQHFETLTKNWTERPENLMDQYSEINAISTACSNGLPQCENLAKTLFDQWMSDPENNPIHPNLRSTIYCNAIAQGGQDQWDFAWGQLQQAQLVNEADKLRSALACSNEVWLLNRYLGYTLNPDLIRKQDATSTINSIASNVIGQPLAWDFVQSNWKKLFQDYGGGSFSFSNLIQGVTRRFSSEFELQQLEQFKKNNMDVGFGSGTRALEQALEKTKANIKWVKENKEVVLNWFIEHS
A word on the IC50: it is the concentration needed to halve the response being measured. High values mean lower potency, low ones higher potency. `NC(CC(=O)O)Cc1ccccc1` (configuration not stated) [3-Amino-4-phenyl-butyric acid] returned an IC50 of 800 µM.
On the same count and under the same terms, next, `NC(Cc1ccccc1)CP(=O)(O)O` (configuration not stated) [1-Benzyl-2-phosphono-ethyl-ammonium]: 500 µM.
